Reference: patent US4912036A, “Rapid differentiation of bacteria using cyclic polypeptide antibiotics” (Eastman Kodak Company, priority 1986, dated 1990)

How the values were obtained:
K. pneumoniae = test: RIND VII reduction solution assay, ΔOD 635 nm; assay type: cell-based, Klebsiella pneumoniae; conditions: K. pneumoniae 7 × 10^7 /ml, antibiotic 10^-4 molar
E. coli [1] = test: MTT reduction solution assay, ΔOD 540 nm; assay type: cell-based, Escherichia coli; conditions: E. coli (-) 5×10^7, gramicidin S 0.00625 mg/ml, 37° C.
Experimental: (§1) These examples illustrate the differentiation of bacteria using a tetrazolium salt and phenolic dye as the reducible compounds and two cyclic polypeptide antibiotics according to the present invention. The tetrazolium salt was 3-(4,5-dimethyl-2-thiazolyl) -2,5-diphenyl-2H-tetrazolium bromide (MTT) which forms a colored formazan dye when reduced. The phenolic dye was 2,6-dichloroindophenol (DCIP) which forms a colorless species when reduced.
(§2) Solutions of the reducible compounds were prepared with the following: HEPES buffer (3 ml, 0.05 molar, pH 7.5), TRITON X-100 nonionic surfactant (1% concentration), glucose (50 μl of 10% in water), tryptose (50 μl of a 10% solution in water), MTT (25 μl of 5 mg/ml methanol) or DCIP (25 μl of 3 mg/ml methanol) and phenazine methosultate ETA (25 μl of 3 mg/ml methanol).
(§3) Test solutions were prepared from the following: reducible compound solution from above (200 μl), 50 μl of either gramicidin S solution (6 mg/ml methanol and 9 ml of buffer) or tyrocidin solution (100 mg/ml methanol and 8 ml of buffer) and 50 μl of cell suspension. […] The change in optical density (ΔOD) was determined after 30 minutes at 37° C. at 540 nm for the MTT assay and at 620 nm for the DCIP assay using a commercially available spectrophotometer.

E. coli [2] = test: DCIP reduction solution assay, ΔOD 620 nm; assay type: cell-based, Escherichia coli; conditions: E. coli (-) 5×10^7, gramicidin S 0.00625 mg/ml, 37° C.
Experimental: as §1, §2, §3

P. vulgaris = test: DCIP reduction solution assay, ΔOD 620 nm; assay type: cell-based, Proteus vulgaris; conditions: P. vulgaris (-) 5×10^7, gramicidin S 0.00625 mg/ml, 37° C.
Experimental: as §1, §2, §3

P. aeruginosa [3] = test: RIND XXIX reduction solution assay, Δ fluorescence; assay type: cell-based, Pseudomonas aeruginosa; conditions: P. aeruginosa (gram -) about 5×10^7 cells/ml, gramicidin S 0.1 mg/ml, 37° C.
Experimental: (§4) Bacterial suspensions were prepared by growing the cells in BHT broth to stationary phase overnight at 37° C. P. auruginosa was grown with agitation. About 40 ml of each overnight culture was centrifuged, decanted and washed once with 0.05 molar potassium phosphate buffer or 0.05 molar N-2-hydroxy-ethylpiperazine-N'-2-ethanesulfonic acid (HEPES) buffer, pH 7.8, and resuspended in buffer.
Dispersions containing RIND compounds were prepared by dissolving the RIND compound in N,N-dimethylformamide (DMF) at 16 mg compound per ml of solvent. An aliquot (250 μl) of the resulting solution was added to 500 μl of TRITON X-100 surfactant. This mixture was then added dropwise with stirring to 25 ml of 0.05 molar HEPES buffer. A dispersion of RIND XXIX was prepared similarly except that DMF was acidified with 0.1% sulfuric acid. Compositions containing water-compatible RIND compounds were prepared as described above except the surfactant was omitted.
Each test solution contained the following: dispersion of RIND XXIX (25 μl) prepared as described above, glucose (400 μl of 10% aqueous solution), tryptose (400 μl of 10% aqueous solution), trimethyl-1,4-benzoquinone ETA (500 μl of 1.5 mg/ml methanol). Aliquots (200 μl) of the mixture were mixed with solutions of the antibiotics (50 μl). The cell suspensions (50 μl) were then added. The final concentration of gramcidin S and tyrocidin were 0.1 mg/ml and 3.3 mg/ml, respectively. The final cell concentration was about 5×10^7 cells/ml. Cell control solutions contained all reagents except antibiotics. Background controls consisted of both buffer and solution controls. […]
The solutions were incubated at 37° C. for 30 minutes, and the change in fluorescence emission (Δ fluorescence) was determined as the difference between the readings taken when the solutions were first mixed and then after 30 minutes incubation. Measurements were made in a commercially available MICROFLUOR Reader (available from Dynatech Laboratories, Alexandria, Virginia, U.S.A.), modified with an excitation filter at 540 nm, an emission filter at 620 nm and a Xenon lamp. […]

P. aeruginosa [4] = test: RIND VII reduction solution assay, ΔOD 635 nm; assay type: cell-based, Pseudomonas aeruginosa; conditions: antibiotic 10^-4 molar
Experimental: as §4
(§5) TERGITOL 7 anionic surfactant was used to differentiate viable bacteria according to the prior art method. Various concentrations of TERGITOL 7 surfactant were mixed with a 10% glucose solution (50 μl), 3-(4,5-dimethyl-2-thiazolyl)-2,5-diphenyl-2N-tetrazolium bromide (MTT) (25 μl at 5 mg/ml methanol) or a RIND VII dispersion (1.5 ml) and phenazine methosulfate ETA (25 μl at 3 mg/ml methanol). The volume of each test solution was brought to 3 ml with potassium phosphate buffer. A cell suspension (100 μl at about 10^8 cells/ml) was then added. The solutions were incubated at 37° C. for 15 and 30 minutes in the presence of either E. coli, a gram(-) bacterium, or S. aureus, a gram(+) bacterium. The amount of dye formed was then determined visually, and graded as follows: "O" indicates no dye formation, +/- indicates faint dye formation, 1+ indicates light dye formation, 2+ indicates moderate dye formation, 3+ indicates strong dye formation, and 4+ indicates very strong dye formation. […]

[5] = tested on: viable gram-positive and gram-negative bacteria; test: Differentiation with dry analytical element, overall result; assay type: cell-based; conditions: dry analytical element with RIND IX
Experimental: The element used had the format and components illustrated below
The appropriate cell suspension (10 μl) was applied to the spreading/reagent layer of each element. The reflection density (DR) was measured at 640 nm. After 10 minutes of incubation at 37° C., the DR was again measured, giving a ΔDr value. A Control solution (10 μl of either 0.5 molar HEPES or potassium phosphate buffer) was also applied to the elements and the ΔDR was similarly determined. The difference between the two ΔDR values gives a test value corrected for background.

S. faecalis = test: RIND VII reduction solution assay, ΔOD 635 nm; assay type: cell-based, Streptococcus faecalis; conditions: S. faecalis 7 × 10^7 /ml, antibiotic 10^-4 molar
Experimental: as §4, §5

gramicidin S
Corrected ΔOD (15 Minutes) (K. pneumoniae): > 2.0
ΔOD, 540 nm after 30 Minutes (E. coli [1]): 1.123
ΔOD, 620 nm after 30 Minutes (E. coli [2]): 1.042
ΔOD, 620 nm after 30 Minutes (P. vulgaris): 1.029
Δ Fluorescence (30 Minutes) (P. aeruginosa [3]): > 4000
Corrected ΔOD (15 Minutes) (P. aeruginosa [4]; P. aeruginosa 7 × 10^7 /ml): 0.107
Corrected ΔOD (15 Minutes) (P. aeruginosa [4]; P. aeruginosa, cell concentration 1.5 × 10^8 /ml): > 2.0
differentiation between viable gram-positive and gram-negative bacteria in an element, in words [5]: can be used in an element to differentiate between viable gram-positive and gram-negative bacteria
Corrected ΔOD (15 Minutes) (S. faecalis): 0.125
